The subject of this experiment is 2G12. Briefly: Binding curve and KD determination of 2G12-glycopeptide interaction (radiolabeled glycopeptide, protein G magnetic bead capture, scintillation counting). As to the method: The resulting mRNAs were purified by denaturing PAGE or MEGAclear kit (Ambion), and 1 μM RNA was used in PURE system translation (reaction volume of translation varied). Typically, 25 μL of translated reaction was diluted with 100 μL of binding buffer (50 mM Tris-HCl, pH 7.8, 300 mM NaCl, 5 mM β-mercaptoethanol) and 25 μL of Ni-NTA agarose suspension (Qiagen), and tumbled at room temperature for 1 h. The resins were transferred to 0.22 μm spin-filter rinsing with 100 μL of bind buffer, and washed with 3×200 μL of bind buffer and 2×200 μL of wash buffer (50 mM Tris-HCl, pH 7.8, 5 mM β-mercaptoethanol). The bound peptides were eluted with 2×25 μL of 0.1% TFA. The eluted peptides were analyzed by MALDI-TOF MS, using α-Cyano-4-hydroxycinnamic acid matrix (Sigma), with or without desalting with ZipTip C18 resin (Millipore). For calibration of MALDI-TOF-MS, at least two of the following standards, bovine insulin, E. coli thioredoxin and/or horse apomyoglobin were used. To quantitate peptide yields, the radioactivities were measured by liquid scintillation counting. For the click reaction, the translated and purified peptides were mixed with 0.1% (v/v) Triton X-100, and then dialyzed against H2O containing 0.1% (v/v) Triton X-100 using Slide-A-Lyzer MINI Dialysis Devices, 3.5K MWCO (Thermo Scientific) overnight to desalt. After dialysis, the peptides were divided into two portions: one was glycosylated via the click reaction, while the other was saved as a non-glycosylated peptide control. […] The glycosylated peptide (<4 pmol) was incubated with 100 nM 2G12 in selection buffer (40 μL) at room temp. The solution was then tumbled 30 min with 0.12 mg of equilibrated Dynabeads Protein G to capture 2G12-glycopeptide complex. Beads were then washed with 3×40 μL of selection buffer and resuspended in 10 μL of selection buffer. The resuspended beads were heated at 70° C. for 30 min to denature 2G12 and elute glycopeptides, chilled on ice for 5 min, and tumbled at room temperature for 10 min. The magnetically isolated supernatant was recovered and the beads were rinsed with 10 μL of selection buffer.
Then, the solution was added to 0.12 mg of pre-equilibrated Dynabeads Protein G and tumbled at room temperature for 30 min. The supernatant was removed and the beads were washed with 3×40 μL of selection buffer. The radioactivities of the supernatant and wash solutions were measured by liquid scintillation counting as unbound fractions. […] The beads were resuspended in 40 μL of selection buffer, heated at 70° C. for 30 min to elute the bound glycopeptides, chilled on ice for 5 min, and tumbled at room temperature for 10 min. The supernatant was removed, and the beads were washed with 40 μL of selection buffer and resuspended in 40 μL of selection buffer. The radioactivities of these solutions and suspensions were measured by liquid scintillation counting separately and the values were combined as apparent bound fractions. […] All experiments were done at least in triplicate. KDs were calculated as described in the footnote of Table 4 (below).

Usually Kd stands for the concentration at which binding is half-saturated.

In the case of `CC[C@H](C)[C@H](NC(=O)[C@H](CCCNC(=N)N)NC(=O)[C@H](CCCNC(=N)N)NC(=O)CNC(=O)[C@H](CC(=O)O)NC(=O)[C@H](CC(N)=O)NC(=O)[C@H](CC(C)C)NC(=O)[C@@H](NC(=O)[C@H](CCc1cn(C2CCC(OC3O[C@H](CO[C@H]4O[C@H](CO[C@H]5O[C@H](CO)[C@@H](O)[C@H](O)[C@@H]5O[C@H]5O[C@H](CO)[C@@H](O)[C@H](O)[C@@H]5O)[C@@H](O)[C@H](O[C@H]5O[C@H](CO)[C@@H](O)[C@H](O)[C@@H]5O[C@H]5O[C@H](CO)[C@@H](O)[C@H](O)[C@@H]5O)[C@@H]4O)[C@@H](O)[C@H](O[C@H]4O[C@H](CO)[C@@H](O)[C@H](O)[C@@H]4O[C@H]4O[C@H](CO)[C@@H](O)[C@H](O)[C@@H]4O[C@H]4O[C@H](CO)[C@@H](O)[C@H](O)[C@@H]4O)[C@@H]3O)CC2)nn1)NC=O)C(C)C)C(=O)N[C@H](C(=O)N[C@@H](CCC(N)=O)C(=O)N[C@@H](CCc1cn(C2CCC(OC3O[C@H](CO[C@H]4O[C@H](CO[C@H]5O[C@H](CO)[C@@H](O)[C@H](O)[C@@H]5O[C@H]5O[C@H](CO)[C@@H](O)[C@H](O)[C@@H]5O)[C@@H](O)[C@H](O[C@H]5O[C@H](CO)[C@@H](O)[C@H](O)[C@@H]5O[C@H]5O[C@H](CO)[C@@H](O)[C@H](O)[C@@H]5O)[C@@H]4O)[C@@H](O)[C@H](O[C@H]4O[C@H](CO)[C@@H](O)[C@H](O)[C@@H]4O[C@H]4O[C@H](CO)[C@@H](O)[C@H](O)[C@@H]4O[C@H]4O[C@H](CO)[C@@H](O)[C@H](O)[C@@H]4O)[C@@H]3O)CC2)nn1)C(=O)N[C@@H](CO)C(=O)N[C@@H](CS)C(=O)N[C@@H](CCC(=O)O)C(=O)N[C@@H](CC(C)C)C(=O)N1CCC[C@H]1C(=O)N[C@@H](CCc1cn(C2CCC(OC3O[C@H](CO[C@H]4O[C@H](CO[C@H]5O[C@H](CO)[C@@H](O)[C@H](O)[C@@H]5O[C@H]5O[C@H](CO)[C@@H](O)[C@H](O)[C@@H]5O)[C@@H](O)[C@H](O[C@H]5O[C@H](CO)[C@@H](O)[C@H](O)[C@@H]5O[C@H]5O[C@H](CO)[C@@H](O)[C@H](O)[C@@H]5O)[C@@H]4O)[C@@H](O)[C@H](O[C@H]4O[C@H](CO)[C@@H](O)[C@H](O)[C@@H]4O[C@H]4O[C@H](CO)[C@@H](O)[C@H](O)[C@@H]4O[C@H]4O[C@H](CO)[C@@H](O)[C@H](O)[C@@H]4O)[C@@H]3O)CC2)nn1)C(=O)N[C@H](C(=O)N[C@@H](CCCNC(=N)N)C(=O)N[C@@H](CCCNC(=N)N)C(=O)N[C@@H](CO)C(=O)NCC(=O)N[C@@H](CO)C(=O)NCC(=O)N[C@@H](CO)C(=O)N[C@@H](CC(C)C)C(=O)NCC(=O)N[C@@H](Cc1c[nH]cn1)C(=O)N[C@@H](Cc1c[nH]cn1)C(=O)N[C@@H](Cc1c[nH]cn1)C(=O)N[C@@H](Cc1c[nH]cn1)C(=O)N[C@@H](Cc1c[nH]cn1)C(=O)N[C@@H](Cc1c[nH]cn1)C(=O)N[C@@H](CCCNC(=N)N)C(=O)N[C@@H](CC(=O)O)C(=O)N[C@@H](Cc1ccc(O)cc1)C(=O)N[C@@H](CCCCN)C(=O)N[C@@H](CC(=O)O)C(=O)N[C@@H](CC(=O)O)C(=O)N[C@@H](CC(=O)O)C(=O)N[C@@H](CC(=O)O)C(=O)N[C@@H](CCCCN)C(=O)O)C(C)C)C(C)C` (some centres unmarked) [Clone 10F5-Δ11, XVLNDGRRIVQXSCELPXVRRS], the “Fmax [%]” value (Table 6 mutational analysis, radioactive bead binding assay) was 17%. Further, the dissociation constant (Kd) (Table 6 mutational analysis, radioactive bead binding assay, ribosomally translated) was over 200 nM.
On to `CC[C@H](C)[C@H](NC(=O)[C@H](CCC(N)=O)NC(=O)[C@H](CCCCN)NC(=O)[C@H](CC(C)C)NC(=O)[C@H](Cc1c[nH]cn1)NC(=O)[C@H](CC(C)C)NC(=O)[C@@H](NC(=O)[C@H](CC(=O)O)NC(=O)[C@H](CCc1cn(C2CCC(OC3O[C@H](CO[C@H]4O[C@H](CO[C@H]5O[C@H](CO)[C@@H](O)[C@H](O)[C@@H]5O[C@H]5O[C@H](CO)[C@@H](O)[C@H](O)[C@@H]5O)[C@@H](O)[C@H](O[C@H]5O[C@H](CO)[C@@H](O)[C@H](O)[C@@H]5O[C@H]5O[C@H](CO)[C@@H](O)[C@H](O)[C@@H]5O)[C@@H]4O)[C@@H](O)[C@H](O[C@H]4O[C@H](CO)[C@@H](O)[C@H](O)[C@@H]4O[C@H]4O[C@H](CO)[C@@H](O)[C@H](O)[C@@H]4O[C@H]4O[C@H](CO)[C@@H](O)[C@H](O)[C@@H]4O)[C@@H]3O)CC2)nn1)NC=O)[C@@H](C)O)C(=O)NCC(=O)NCC(=O)N[C@@H](CCc1cn(C2CCC(OC3O[C@H](CO[C@H]4O[C@H](CO[C@H]5O[C@H](CO)[C@@H](O)[C@H](O)[C@@H]5O[C@H]5O[C@H](CO)[C@@H](O)[C@H](O)[C@@H]5O)[C@@H](O)[C@H](O[C@H]5O[C@H](CO)[C@@H](O)[C@H](O)[C@@H]5O[C@H]5O[C@H](CO)[C@@H](O)[C@H](O)[C@@H]5O)[C@@H]4O)[C@@H](O)[C@H](O[C@H]4O[C@H](CO)[C@@H](O)[C@H](O)[C@@H]4O[C@H]4O[C@H](CO)[C@@H](O)[C@H](O)[C@@H]4O[C@H]4O[C@H](CO)[C@@H](O)[C@H](O)[C@@H]4O)[C@@H]3O)CC2)nn1)C(=O)N1CCC[C@H]1C(=O)N[C@@H](CC(N)=O)C(=O)N[C@@H](CS)C(=O)N[C@H](C(=O)N[C@H](C(=O)N[C@@H](CCC(N)=O)C(=O)N[C@@H](CCC(N)=O)C(=O)N[C@@H](CC(=O)O)C(=O)N[C@H](C(=O)N[C@@H](CCCNC(=N)N)C(=O)N[C@@H](CCc1cn(C2CCC(OC3O[C@H](CO[C@H]4O[C@H](CO[C@H]5O[C@H](CO)[C@@H](O)[C@H](O)[C@@H]5O[C@H]5O[C@H](CO)[C@@H](O)[C@H](O)[C@@H]5O)[C@@H](O)[C@H](O[C@H]5O[C@H](CO)[C@@H](O)[C@H](O)[C@@H]5O[C@H]5O[C@H](CO)[C@@H](O)[C@H](O)[C@@H]5O)[C@@H]4O)[C@@H](O)[C@H](O[C@H]4O[C@H](CO)[C@@H](O)[C@H](O)[C@@H]4O[C@H]4O[C@H](CO)[C@@H](O)[C@H](O)[C@@H]4O[C@H]4O[C@H](CO)[C@@H](O)[C@H](O)[C@@H]4O)[C@@H]3O)CC2)nn1)C(=O)N[C@H](C(=O)N[C@@H](CO)C(=O)N[C@H](C(=O)N1CCC[C@H]1C(=O)N[C@@H](Cc1ccc(O)cc1)C(=O)N[C@H](C(=O)N[C@@H](Cc1ccc(O)cc1)C(=O)N[C@H](C(=O)N[C@@H](Cc1c[nH]c2ccccc12)C(=O)N1CCC[C@H]1C(=O)NCC(=O)N[C@@H](CO)C(=O)NCC(=O)N[C@@H](CO)C(=O)N[C@@H](CC(C)C)C(=O)NCC(=O)N[C@@H](Cc1c[nH]cn1)C(=O)N[C@@H](Cc1c[nH]cn1)C(=O)N[C@@H](Cc1c[nH]cn1)C(=O)N[C@@H](Cc1c[nH]cn1)C(=O)N[C@@H](Cc1c[nH]cn1)C(=O)N[C@@H](Cc1c[nH]cn1)C(=O)N[C@@H](CCCNC(=N)N)C(=O)N[C@@H](CC(=O)O)C(=O)N[C@@H](Cc1ccc(O)cc1)C(=O)N[C@@H](CCCCN)C(=O)N[C@@H](CC(=O)O)C(=O)N[C@@H](CC(=O)O)C(=O)N[C@@H](CC(=O)O)C(=O)N[C@@H](CC(=O)O)C(=O)N[C@@H](CCCCN)C(=O)O)[C@@H](C)O)[C@@H](C)O)[C@@H](C)CC)[C@@H](C)O)C(C)C)[C@@H](C)O)[C@@H](C)CC` (some centres unmarked) [Clone 10F3, XDTLHLKQIGGXPNCITQQDVRXTSIPYTYTWP], for which the “tolerance of Cys substitutions for 2G12 binding (in words)” value (Cys to Ser mutants, Table 6) is listed as “tolerated”. For the same molecule, the “Fmax [%]” value (Table 4, maximal fraction bound from curve fit, error = standard error of fit) was 100 ± 2.7%. For the same molecule, under “Table 4, ribosomally translated radiolabeled glycopeptide with His6/FLAG tag, room temperature, fit Fbound=(Fmax[2G12])/(KD+[2G12]), error = standard error of fit”, the dissociation constant Kd is 3 ± 0.31 nM.

Source of the values: patent US11345912B2, “Directed evolution of multivalent glycopeptides that tightly bind to target proteins” (Brandeis University, priority 2013, dated 2022).
